Conditions: Crystal, Calculated from knudsen effusion weight loss

O=C1c2ccccc2-c2ccccc21 [9(9H)-fluorenone]
Conditions | vapor or sublimation pressure [kPa]
300.8 K | 1.21e-05
303.6 K | 1.69e-05
307.9 K | 2.79e-05
309.8 K | 3.65e-05
313 K | 5.1e-05
313.1 K | 5.09e-05
315.1 K | 6.16e-05
323 K | 0.000139
323.1 K | 0.000143
324.5 K | 0.000159
324.7 K | 0.000167
328.4 K | 0.000246
328.6 K | 0.000245
330.9 K | 0.000311
331.1 K | 0.000319
331.9 K | 0.000345
336.5 K | 0.000528
336.6 K | 0.00054
337.8 K | 0.000596
337.9 K | 0.000599
342.7 K | 0.000937
342.8 K | 0.000952

OC1c2ccccc2-c2ccccc21 [9H-fluoren-9-ol]
Conditions | vapor or sublimation pressure [kPa]
326.1 K | 2.1e-05
327.5 K | 2.44e-05
329.8 K | 3.15e-05
331.3 K | 3.74e-05
334.9 K | 5.12e-05
340.9 K | 0.000101
342.6 K | 0.000115
343.6 K | 0.000123
344.7 K | 0.000144
346.1 K | 0.000159
347.4 K | 0.000186
351.2 K | 0.000276
355.1 K | 0.000402
358.7 K | 0.00056
361.9 K | 0.00074
366.1 K | 0.00103

c1ccc2c(c1)Oc1ccccc1S2 [phenoxathiin]
Conditions | vapor or sublimation pressure [kPa]
304.2 K | 8.61e-05
308.7 K | 0.000143
311.4 K | 0.000209
311.5 K | 0.000207
311.9 K | 0.000217
318.2 K | 0.000453
323 K | 0.000771
324.5 K | 0.000927

O=C1c2ccccc2C(=O)c2ccccc21 [9,10(9H,10H)-anthracenedione]
Conditions | vapor or sublimation pressure [kPa]
346 K | 4.49e-06
359.9 K | 2.09e-05
360.9 K | 2.2e-05
362.7 K | 2.52e-05
367.4 K | 4.1e-05
369.9 K | 5.42e-05
377.6 K | 0.000119
379.2 K | 0.000144
380.1 K | 0.000149
385.4 K | 0.000267
385.8 K | 0.000263
386.8 K | 0.000305
392.7 K | 0.000493
392.8 K | 0.000494
393.4 K | 0.000519
399.2 K | 0.000872
399.9 K | 0.000948

ON=C1c2ccccc2-c2ccccc21 [9-oximinofluorene]
Conditions | vapor or sublimation pressure [kPa]
374.5 K | 0.000175
376.6 K | 0.000198
378.5 K | 0.000231
382.6 K | 0.000302
383.2 K | 0.000317
386.2 K | 0.000385
387.9 K | 0.000428
389.9 K | 0.000474
393.8 K | 0.000613
395.2 K | 0.000671
398.6 K | 0.000816

c1ccc2c(c1)Nc1ccccc1O2 [phenoxazine]
Conditions | vapor or sublimation pressure [kPa]
329.7 K | 2.81e-05
336.7 K | 5.94e-05
340.9 K | 0.000102
344.9 K | 0.000164
345.1 K | 0.000164
346.9 K | 0.000196
348.2 K | 0.00022
352.9 K | 0.000345
353.1 K | 0.000363
356.7 K | 0.000483
360.9 K | 0.000748
364.5 K | 0.00107

c1ccc2c(c1)[nH]c1cnccc12 [9H-pyrido[3,4-b]indole]
Conditions | vapor or sublimation pressure [kPa]
352.8 K | 5.7e-06
363.8 K | 1.74e-05
367.9 K | 2.56e-05
368.1 K | 2.72e-05
370.3 K | 3.37e-05
371.4 K | 4.16e-05
371.5 K | 4.16e-05
374.1 K | 5.03e-05
374.4 K | 5.45e-05
378.2 K | 7.53e-05
381.8 K | 0.000103
382 K | 0.000107
382.2 K | 0.000108
385.4 K | 0.000141
385.9 K | 0.000155
389.2 K | 0.000218
389.4 K | 0.000229

Reference: the NIST ThermoML archive (doi:10.1016/j.jct.2010.01.014)
